Measured values from patent publication US20120321590A1, “BRIDGED POLYCYCLIC COMPOUNDS” (priority 2011, published 2012).
Where two headings read alike, the source gives them in different places.

Experiments:
Format in all cases: cell-based, HCV
[1] = Transient replicon assay, genotype 1a chimeric replicon; conditions: Hepatitis C virus, genotype 1a / genotype 1b, Huh-7, 96 h, read-out: EC50 1a, Huh7-Lunet cells transfected with chimeric replicon RNA, cultured 4 days, luciferase activity
Description: (§1) The transient replicon assay utilizes the genotype 1b (Con1) dicistronic subgenomic replicon. Genotype 1a activity was determined using a chimeric replicon containing the genotype 1b sequence for NS3 through NS5A nonstructural proteins and genotype 1a (H77) sequence for the NS5B region.
(§2) The RNA transcripts were generated using the Megascript T7 kit (Applied Biosystems, Foster City, Calif.). Exponentially growing Huh7-Lunet cells were mixed with 4 μg of replicon RNA and plated into a 96-well plate Gene Pulser MXcell Electroporation System (Bio-Rad, Hercules, Calif.). Electroporation was immediately performed at 250 V and 750 μF capacitance with a single exponential waveform pulse. Transfected cells were transferred to Dulbecco modified Eagle medium in the presence of 10% FBS and plated into 96-well plates with 7,500 cells per well. Compounds at various concentrations were added to the cells after 2 hours and were cultured for 4 days. The cells were lysed with the Bright-Glo Reagent (Promega, Madison, Wis.) and luciferase activity was measured with a luminometer (Wallac 1420 Multilabel HTS Counter Victor 2). The background control was replicon cells treated with 100 nM BILN-2061, an inhibitor of the HCV protease. Dose responses were performed in triplicate and the values were averaged. All experiments were repeated at least three times to verify the reproducibility.
(§3) The EC50 values were determined using a standard four-parameter dose response equation.

[2] = test system: genotype 1b (Con1) dicistronic subgenomic replicon; experiment: Transient replicon assay, genotype 1b; conditions: Huh7-Lunet cells transfected with replicon RNA, cultured 4 days, luciferase activity
Description: as §1, §2, §3

[3] = test system: chimeric replicon containing the genotype 1b sequence for NS3 through NS5A and genotype 1a (H77) sequence for the NS5B region; experiment: Transient replicon assay, genotype 1a chimeric replicon
Description: as §1, §2, §3

[4] = read-out: EC50 1a; Huh7-Lunet cells transfected with chimeric replicon RNA, cultured 4 days, luciferase activity

SMILES	EC50 [1] [µM]	EC50 ([2]; Hepatitis C virus, Huh-7, 96 h) [µM]	EC50 ([3]; Huh7-Lunet cells transfected with chimeric replicon RNA, cultured 4 days, luciferase activity; read-out: EC50 1a) [µM]	EC50 [2] [µM]	EC50 [3, 4] [µM]
CS(=O)(=O)Nc1ccc2c(c1)S(=O)(=O)N=C(C1=C(O)[C@@H]3C4C5C6CC7C4C7C(C65)[C@@H]3N(Cc3ccc(F)cc3)C1=O)N2 (racemic) [Example 1, rac-N-{3-[(4S,9R)-5-[(4-Fluorophenyl)methyl]-8-hydroxy-6-oxo-5-azahexacyclo[8.5.0.0^2,15.0^3,12.0^4,9.0^11,13]pentadec-7-en-7-yl]-1,1-dioxo-4H-1λ^6,2,4-benzothiadiazin-7-yl}methanesulfonamide]	0.012	0.002	–	–	–
CS(=O)(=O)NCc1csc2c1S(=O)(=O)N=C(C1=C(O)[C@@H]3C4C5C6CC7C4C7C(C65)[C@@H]3N(Cc3ccc(F)cc3)C1=O)N2 (racemic) [Example 4, rac-N-({3-[(4S,9R)-5-[(4-Fluorophenyl)methyl]-8-hydroxy-6-oxo-5-azahexacyclo[8.5.0.0^2,15.0^3,12.0^4,9.0^11,13]pentadec-7-en-7-yl]-1,1-dioxo-4H-1λ^6,5,2,4-thieno[2,3-e][1λ^6,2,4]thiadiazin-7-yl}methyl)methanesulfonamide]	–	–	0.042	0.001	–
CS(=O)(=O)Nc1ccc2c(c1)S(=O)(=O)N=C(C1=C(O)[C@@H]3C4CC5CC(C4)CC(C5)[C@@H]3N(Cc3ccc(F)cc3)C1=O)N2 (racemic) [Example 5, rac-N-{3-[(2S,7R)-3-[(4-Fluorophenyl)methyl]-6-hydroxy-4-oxo-3-azatetracyclo[8.3.1.1^8,12.0^2,7]pentadec-5-en-5-yl]-1,1-dioxo-4H-1λ^6,2,4-benzothiadiazin-7-yl}methanesulfonamide]	0.193	0.011	–	–	–
CS(=O)(=O)NCc1csc2c1S(=O)(=O)N=C(C1=C(O)[C@@H]3C4CC5CC(C4)CC(C5)[C@@H]3N(Cc3ccc(F)cc3)C1=O)N2 (racemic) [Example 6, rac-N-({3-[(2S,7R)-3-[(4-Fluorophenyl)methyl]-6-hydroxy-4-oxo-3-azatetracyclo[8.3.1.1^8,12.0^2,7]pentadec-5-en-5-yl]-1,1-dioxo-4H-1λ^6,5,2,4-thieno[2,3-e][1λ^6,2,4]thiadiazin-7-yl}methyl)methanesulfonamide]	0.696	0.042	–	–	–
CS(=O)(=O)Nc1ccc2c(c1)S(=O)(=O)N=C(C1=C(O)[C@@H]3C4C5CC6C4C6C5[C@@H]3N(Cc3ccc(F)cc3)C1=O)N2 (mixture of isomers) [Example 7, rac-N-{3-[(1R,9S)-10-[(4-Fluorophenyl)methyl]-13-hydroxy-11-oxo-10-azapentacyclo[7.4.0.0^2,7.0^3,5.0^4,8]tridec-12-en-12-yl]-1,1-dioxo-4H-1λ^6,2,4-benzothiadiazin-7-yl}methanesulfonamide]	–	0.004	–	–	0.137
CS(=O)(=O)Nc1ccc2c(c1)S(=O)(=O)N=C(C1=C(O)[C@@H]3C4C5CC6C4C6C5[C@@H]3N(Cc3ccc(F)cc3)C1=O)N2 (mixture of isomers) [Example 8, rac-N-{3-[(1R,9S)-10-[(4-Fluorophenyl)methyl]-13-hydroxy-11-oxo-10-azapentacyclo[7.4.0.0^2,7.0^3,5.0^4,8]tridec-12-en-12-yl]-1,1-dioxo-4H-1λ^6,2,4-benzothiadiazin-7-yl}methanesulfonamide]	–	–	–	0.004	0.336
CS(=O)(=O)NCc1csc2c1S(=O)(=O)N=C(C1=C(O)[C@@H]3C4C5CC6C4C6C5[C@@H]3N(Cc3ccc(F)cc3)C1=O)N2 (mixture of isomers) [Example 9, rac-N-({3-[(1R,9S)-10-[(4-Fluorophenyl)methyl]-13-hydroxy-11-oxo-10-azapentacyclo[7.4.0.0^2,7.0^3,5.0^4,8]tridec-12-en-12-yl]-1,1-dioxo-4H-1λ^6,5,2,4-thieno[2,3-e][1λ^6,2,4]thiadiazin-7-yl}methyl)methanesulfonamide]	0.171	0.005	–	–	–
CS(=O)(=O)Nc1ccc2c(c1)S(=O)(=O)N=C(C1=C(O)C3C4C5C6C7C4C7C(C56)C3N(Cc3ccc(F)cc3)C1=O)N2 (racemic) [Example 10, rac-N-{3-[(1R,10S)-11-[(4-Fluorophenyl)methyl]-14-hydroxy-12-oxo-11-azahexacyclo[8.4.0.0^2,70.0^3,5.0^4,9.0^6,8]tetradec-13-en-13-yl]-1,1-dioxo-4H-1λ^6,2,4-benzothiadiazin-7-yl}methanesulfonamide]	0.008	0.001	–	–	–
CS(=O)(=O)NCc1csc2c1S(=O)(=O)N=C(C1=C(O)C3C4C5C6C7C4C7C(C56)C3N(Cc3ccc(F)cc3)C1=O)N2 (racemic) [Example 13, rac-N-({3-[(1R,10S)-11-[(4-Fluorophenyl)methyl]-14-hydroxy-12-oxo-11-azahexacyclo[8.4.0.0^2,7.0^3,5.0^4,9.0^6,8]tetradec-13-en-13-yl]-1,1-dioxo-4H-1λ^6,5,2,4-thieno[2,3-e][1λ^6,2,4]thiadiazin-7-yl}methyl)methanesulfonamide]	0.036	0.002	–	–	–
CS(=O)(=O)Nc1ccc2c(c1)S(=O)(=O)N=C(C1=C(O)C3C4C5C6C4C4C6C5C4C3N(Cc3ccc(F)cc3)C1=O)N2 (racemic) [Example 14, rac-N-{3-[(1R,10S)-11-[(4-fluorophenyl)methyl]-14-hydroxy-12-oxo-11-azahexacyclo[8.4.0.0^2,5.0^3,8.0^4,7.0^6,9]tetradec-13-en-13-yl]-1,1-dioxo-4H-1λ^6,2,4-benzothiadiazin-7-yl}methanesulfonamide]	0.043	0.002	–	–	–
CS(=O)(=O)NCc1csc2c1S(=O)(=O)N=C(C1=C(O)C3C4C5C6C4C4C6C5C4C3N(Cc3ccc(F)cc3)C1=O)N2 (racemic) [Example 15, rac-N-({3-[(1R,10S)-11-[(4-fluorophenyl)methyl]-14-hydroxy-12-oxo-11-azahexacyclo[8.4.0.0^2,5.0^3,8.0^4,7.0^6,9]tetradec-13-en-13-yl]-1,1-dioxo-4H-1λ^6,5,2,4-thieno[2,3-e][1λ^6,2,4]thiadiazin-7-yl}methyl)methanesulfonamide]	–	0.013	–	–	–
CS(=O)(=O)Nc1ccc2c(c1)S(=O)(=O)N=C(C1=C(O)[C@@H]3C4C5C6CC7C4C7C(C65)[C@@H]3N(Cc3ccc(F)cc3)C1=O)N2 [Example 2, N-{3-[(4S,9R)-5-[(4-Fluorophenyl)methyl]-8-hydroxy-6-oxo-5-azahexacyclo[8.5.0.0^2,15.0^3,12.0^4,9.0^11,13]pentadec-7-en-7-yl]-1,1-dioxo-4H-1λ^6,2,4-benzothiadiazin-7-yl}methanesulfonamide]	0.008	0.001	–	–	–
CS(=O)(=O)Nc1ccc2c(c1)S(=O)(=O)N=C(C1=C(O)[C@H]3C4C5C6CC7C(C74)C(C65)[C@H]3N(Cc3ccc(F)cc3)C1=O)N2 [Example 3, N-{3-[(4R,9S)-5-[(4-Fluorophenyl)methyl]-8-hydroxy-6-oxo-5-azahexacyclo[8.5.0.0^2,15.0^3,12.0^4,9.0^11,13]pentadec-7-en-7-yl]-1,1-dioxo-4H-1λ^6,2,4-benzothiadiazin-7-yl}methanesulfonamide]	> 0.33	> 0.33	–	–	–
CS(=O)(=O)Nc1ccc2c(c1)S(=O)(=O)N=C(C1=C(O)[C@@H]3C4C5C6C7C4C7C(C65)[C@@H]3N(Cc3ccc(F)cc3)C1=O)N2 (stereo partly drawn) [Example 11, N-{3-[(1R,10S)-11-[(4-Fluorophenyl)methyl]-14-hydroxy-12-oxo-11-azahexacyclo[8.4.0.0^2,7.0^3,5.0^4,9.0^6,8]tetradec-13-en-13-yl]-1,1-dioxo-4H-1λ^6,2,4-benzothiadiazin-7-yl}methanesulfonamide]	0.004	0.0005	–	–	–
CS(=O)(=O)Nc1ccc2c(c1)S(=O)(=O)N=C(C1=C(O)[C@H]3C4C5C6C7C(C74)C(C65)[C@H]3N(Cc3ccc(F)cc3)C1=O)N2 (stereo partly drawn) [Example 12]	> 0.33	> 0.33	–	–	–
CS(=O)(=O)Nc1ccc2c(c1)S(=O)(=O)N=C(C1=C(O)[C@@H]3CCC[C@@H]3N(Cc3ccc(F)cc3)C1=O)N2 [Example 17, reference compound]	0.55	0.018	–	–	–
CS(=O)(=O)Nc1ccc2c(c1)S(=O)(=O)N=C(C1=C(O)[C@@H]3[C@H]4CC[C@H](C4)[C@@H]3N(Cc3ccc(F)cc3)C1=O)N2 [Example 18, reference compound]	0.045	0.002	–	–	–
CS(=O)(=O)NCc1csc2c1S(=O)(=O)N=C(C1=C(O)[C@@H]3[C@H]4CC[C@H](C4)[C@@H]3N(Cc3ccc(F)cc3)C1=O)N2 [Example 19, reference compound]	0.045	0.002	–	–	–
CS(=O)(=O)Nc1ccc2c(c1)S(=O)(=O)N=C(C1=C(O)[C@@H]3C4CCC(CC4)[C@@H]3N(Cc3ccc(F)cc3)C1=O)N2 [Example 20, reference compound]	0.012	0.0006	–	–	–
CS(=O)(=O)Nc1ccc2c(c1)S(=O)(=O)N=C(c1c(O)c3cccn3n(Cc3ccc(F)cc3)c1=O)N2 [Example 21, reference compound]	0.4	0.013	–	–	–
